Source: patent US3998963A, “Tertiary butyl substituted carbamoyl oxime pesticides” (priority 1975, dated 1976)
In brackets after ≈: the same amount, converted by molar mass.

Assays:
Type in all cases: in vivo
[1] = test system: Mexican bean beetle (Epilachna varivestis, Muls.); assay: Mexican Bean Beetle Leaf Spray Test; details: 72 h, 3 days, read-out: Insect LD50, Beetle
Description: (§1) Suspensions of the test compouns were prepared by dissolving one gram of compound in 50 milliliters of acetone in which had been dissolved 0.1 gram (10 percent of the weight of compound) of an alkylphenoxy polyethoxyethanol surfactant, as an emulsifying or dispersing agent. The resulting solution was mixed into 150 milliliters of water to give roughly 200 milliliters of a suspension containing the compound in finely divided form. The thus-prepared stock suspension contained 0.5 percent by weight of compound. The test concentrations in parts per million by weight employed in the tests described hereinbelow were obtained by appropriate dilutions of the stock suspension with water. The test procedures were as follows:
Mexican Bean Beetle Leaf Spray Test
Fourth instar lavae of the Mexican bean beetle (Epilachna varivestis, Muls.), reared on Tendergreen bean plants at a temperature of 80°±5° F. and 50±5 per cent relative humidity, were the test insects.
The test compounds were formulated by diluting the stock suspension with water to give a suspension containing 500 parts of test compound per million parts of final formulation. Potted Tendergreen bean plants of standard height and age were placed on a revolving turntable and sprayed with 100-110 milliliters of test comound formulation by use of a DeVilbiss spray gun set at 10 psig air pressure. This application, which lasted 25 seconds, was sufficient to wet plants to run-off. As a control, 100-110 milliliters of a water-acetone-emulsifier solution containing no test compound were also sprayed on infested plants. When dry, the paired leaves were separated and each was placed in a 9 centimeter Petri dish lined with moistened filter paper. Five randomly selected larvae were introduced into each dish, and the dishes were closed. The closed dishes were labeled and held at a temperature of 80°±5° F, for 3 days. Although the larvae could easily consume the leaf within 24 to 48 hours, no more food was added. Larvae which were unable to move the length of the body, even upon stimulation, were considered dead.

bean = assay: Phytotoxicity Test, bean; details: 2500 parts per million; ten days
Description: as §1
(§2) Experiments were also conducted to determine the phytotoxicity of representative compositions with respect to healthy fresh plants. Solutions of the compounds were prepared as described above to provide a concentration of 2500 parts per million of the test compound. The test plants were sprayed in accordance with the procedure described above for the Mite Foliage Spray Test so as to deliver approximately 100 milliliters of test solution to the leaves of each plant tested. The sprayed plants and controls were set aside for approximately one hour to allow the foliage to dry and were then placed in the greenhouse. After ten days the plants were visually inspected to determine the extent of foliage injury. A rating of 1 indicates no perceptible injury; 5 indicates the plant was dead and ratings of 2, 3 and 4 indicate intermediate degrees of injury based upon the number and extent to which leaves were injured.

corn = assay: Phytotoxicity Test, corn; details: 2500 parts per million; ten days
Description: as §1
as §2, with “After ten days the plants were visually inspected to determine the extent of foliage injury. A rating of 1 indicates no perceptible injury; 5 indicates the plant was dead and ratings of 2, 3 and 4 indicate intermediate degrees of injury based upon the number and extent to which leaves were injured.” left out

[2] = test system: bean, corn, tomato or cotton; assay: Phytotoxicity Test, crop plants overall; details: text statement
Description: (§3) Each of the new compounds were evaluated in comparison with known similar prior art compounds to determine their comparative pesticidal activity against mites and certain insects, including an aphid, caterpillar, a beetle and a fly. The new compounds were also tested for phytotoxicity on important economic crops including bean, corn, tomato and cotton. The new compounds were further evaluated for mammalian toxicity.
as §1, §2

[3] = test system: bean aphid (Aphis fabae Scop.); assay: Bean Aphid Foliage Spray Test; details: foliar, 24 hour holding period, read-out: Insect LD50, Aphid
Description: as §1
Bean Aphid Foliage Spray Test
Adults and nymphal stages of the bean aphid (Aphis fabae Scop.) reared on potted dwarf nasturtium plants at 65°-70° F. and 50-70 per cent relative humidity, constituted the test insects. For testing purposes, the number of aphids per pot was standardized to 100-150 by trimming plants containing excess aphids.
The test compounds were formulated by diluting the stock suspension with water to give a suspension containing 500 parts of test compound per million parts of final formulation.
The potted plants (one pot per compound tested) infested with 100-150 aphids, were placed on a revolving turntable and sprayed with 100 -110 milliliters of test compound formulation by use of a DeVilbiss spray gun set at 40 psig. air pressure. This application, which lasted 25 seconds, was sufficient to wet the plants to run-off. As a control, 100-110 milliliters of a water-acetone-emulsifier solution containing no test compound were also sprayed on infested plants. After spraying, the pots were placed on their sides on a sheet of white standard mimeograph paper which had peen previously ruled to facilitate counting. Temperature and humidity in the test room during the 24 hour holding period were 65°-70° F. and 50-70 per cent, respectively. Aphids which fell onto the paper and were unable to remain standing after being uprighted were considered dead. Aphids remaining on the plants were observed closely for movement and those which were unable to move the length of the body upon stimulation by prodding were considered dead. Per cent mortality was recorded for various concentration levels.

[4] = test system: two-spotted mite (Tetranychus urticae Koch); assay: Mite Foliage Spray Test; details: foliar, 144 h, 6 days, read-out: Insect LD50, Mite
Description: as §1
Adults and nymphal stage of the two-spotted mite (Tetranychus urticae Koch), reared on Tendergreen bean plants at 80±5 per cent relative humidity, were the test organisms. Infested leaves from a stock culture were placed on the primary leaves of two bean plants 6 to 8 inches in height, growing in a 21/2 inch clay pot. 150-200 Mites, a sufficient number for testing, transferred from the excised leaves to the fresh plants in a period of twenty four hours. Following the twenty four hour transfer period, the excised leaves were removed from the infested plants. The test compounds were formulated by diluting the stock suspension with water to give a suspension containing 500 parts of test compound per million parts of final formulation. The potted plants (one pot per compound) were placed on a revolving turntable and sprayed with 100-110 milliliters of test compound formulation by use of a DeVilbiss spray gun set at 40 psig. air pressure. This application, which lasted 25 seconds, was sufficient to wet the plants to run-off. As a control, 100-110 milliliters of a water solution containing acetone and emulsifier in the same concentrations as the test compound formulation, but containing no test compound, were also sprayed on infested plants. The sprayed plants were held at 80±5 per cent relative humidity for 6 days, after which a mortality count of motile forms was made. Microscopic examination for motile forms was made on the leaves of the test plants. Any individual which was capable of locomotion upon prodding was considered living.

cotton = assay: Phytotoxicity Test, cotton; details: for Phytotoxicity, Cotton: 2500 parts per million, ten days; for phytotoxicity to cotton (in words): text statement
Description: as §1, §2

insects = assay: Insect toxicity, overall; details: text statement
Description: as §3, §1
In Table 1 are presented insect and rat toxicity data (bait tests) on a comparative basis of the compounds described above. […] Rat toxicity is also more meaningfully compared on the basis of molar weight LD50 values. The relative efficacy of the parent compounds as compared to the previously known derivatives and as compared to the new compounds of this invention is also shown in Table 1. The ratio of efficacy as contact poisons (immersion/bait) of the compounds tested against Armyworm and House Fly is presented in Table 2 along with the results of the phytotoxicity tests of the compounds on bean, corn, tomato and cotton.

tomato = assay: Phytotoxicity Test, tomato; details: 2500 parts per million; ten days
Description: as §1
as §2, with “After ten days the plants were visually inspected to determine the extent of foliage injury. A rating of 1 indicates no perceptible injury; 5 indicates the plant was dead and ratings of 2, 3 and 4 indicate intermediate degrees of injury based upon the number and extent to which leaves were injured.” left out

Structure (SMILES)	LC50 [1]	Phytotoxicity, Bean (bean)	Phytotoxicity, Corn (corn)	phytotoxicity (in words) [2]	LC50 [3]	LC50 [4]	Phytotoxicity, Cotton (cotton)	phytotoxicity to cotton (in words) (cotton)	contact / stomach poison properties for insects (in words) (insects)	insect toxicity / pesticidal activity (in words) (insects)	contact / stomach poison properties for insects (in words) (insects; listed as O-[ N-methyl-N-[4-(t-butylphenyl) sulfenyl] carbamoyl] S-isopropyl thiolacetohyd)	insect toxicity / pesticidal activity (in words) (insects; listed as O-[ N-methyl-N-[4-(t-butylphenyl)sulfenyl] carbamoyl] S-methyl acetothiolhydroxi)	Phytotoxicity, Tomato (tomato)
CNC(=O)ON=C(C)SC(C)C [Compound 2]	30 µg/mL (≈ 158 µM)	Bu 2	Bu 2	phytotoxic to one or more of the crop plants	25 µg/mL (≈ 131 µM)	450 µg/mL (≈ 2370 µM)	Bu 2						
CNC(=O)ON=C(C)SC [Compound 1, O-(methylcarbamoyl) S-methyl acetothiolhydroximate]	70 µg/mL (≈ 432 µM)	BuCl 2		phytotoxic to one or more of the crop plants	4 µg/mL (≈ 24.7 µM)	500 µg/mL (≈ 3080 µM)	*Bu 3	so great as to significantly curtail the use of this otherwise highly desirable pesticide on cotton					
CC(=NOC(=O)N(C)Sc1ccc(C(C)(C)C)cc1)SC(C)C [Compound 9, O-[N-Methyl-N-[4-(t-Butylphenyl)sulfenyl]carbamoyl] S-Isopropyl Thiolacetohydroximate]	30 µg/mL (≈ 84.6 µM)			extremely low phytotoxicity	9 µg/mL (≈ 25.4 µM)	42 µg/mL (≈ 118 µM)			dramatically superior contact poison characteristics	dramatic improvement in activity against all insect species, again with the exception of house fly	outstanding stomach poison against insects and also appears to be the most powerful contact poison for insects among all of the compositions tested		
CC(=NOC(=O)N(C)Sc1ccc(Cl)cc1)SC(C)C [Compound 5]	50 µg/mL (≈ 150 µM)	Trif. 3			3 µg/mL (≈ 9.01 µM)	58 µg/mL (≈ 174 µM)	Bu 2						
CSC(C)=NOC(=O)N(C)Sc1ccc(C(C)(C)C)cc1 [Compound 8, O-[N-Methyl-N-[4-(t-butylphenyl)sulfenyl]carbamoyl] S-Methyl Acetothiolhydroximate]	20 µg/mL (≈ 61.3 µM)			very low phytotoxicity	2.5 µg/mL (≈ 7.66 µM)	380 µg/mL (≈ 1160 µM)	Bu 2	moderate leaf burn injury		dramatic improvement in toxicity against all insects tested with the exception of house fly		exceptionally high insecticidal activity against aphid, armyworm and bean beetle	
CCSC(C)=NOC(=O)NC [Compound 3]	38 µg/mL (≈ 216 µM)	2			12 µg/mL (≈ 68.1 µM)	250 µg/mL (≈ 1420 µM)	2						2
CC(=NOC(=O)N(C)Sc1ccc(C)cc1)SC(C)C [Compound 7]	15 µg/mL (≈ 48 µM)				5 µg/mL (≈ 16 µM)	42 µg/mL (≈ 134 µM)							
CSC(C)=NOC(=O)N(C)Sc1ccc(Cl)cc1 [Compound 4]	70 µg/mL (≈ 230 µM)	Trif. 3			2 µg/mL (≈ 6.56 µM)	500 µg/mL (≈ 1640 µM)	*Bu 3						
CSC(C)=NOC(=O)N(C)Sc1ccc(C)cc1 [Compound 6]	15 µg/mL (≈ 52.7 µM)				5 µg/mL (≈ 17.6 µM)	95 µg/mL (≈ 334 µM)	Bu 2						
